# Measured values reported in ChEMBL document CHEMBL1201862, “PubChem BioAssay data set” (2004).
# Activity calls are given as the source filed them.
# Tests used:
# [1] = biological target: T1, Sentrin-specific protease 7 (Homo sapiens, UniProt Q9BQF6); assay type: functional;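 further: Luminescence-based dose-response confirmation of ultra-high-throughput screening hits, measuring inhibition of SENP7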
# T1 sequence (Q9BQF6 whole entry): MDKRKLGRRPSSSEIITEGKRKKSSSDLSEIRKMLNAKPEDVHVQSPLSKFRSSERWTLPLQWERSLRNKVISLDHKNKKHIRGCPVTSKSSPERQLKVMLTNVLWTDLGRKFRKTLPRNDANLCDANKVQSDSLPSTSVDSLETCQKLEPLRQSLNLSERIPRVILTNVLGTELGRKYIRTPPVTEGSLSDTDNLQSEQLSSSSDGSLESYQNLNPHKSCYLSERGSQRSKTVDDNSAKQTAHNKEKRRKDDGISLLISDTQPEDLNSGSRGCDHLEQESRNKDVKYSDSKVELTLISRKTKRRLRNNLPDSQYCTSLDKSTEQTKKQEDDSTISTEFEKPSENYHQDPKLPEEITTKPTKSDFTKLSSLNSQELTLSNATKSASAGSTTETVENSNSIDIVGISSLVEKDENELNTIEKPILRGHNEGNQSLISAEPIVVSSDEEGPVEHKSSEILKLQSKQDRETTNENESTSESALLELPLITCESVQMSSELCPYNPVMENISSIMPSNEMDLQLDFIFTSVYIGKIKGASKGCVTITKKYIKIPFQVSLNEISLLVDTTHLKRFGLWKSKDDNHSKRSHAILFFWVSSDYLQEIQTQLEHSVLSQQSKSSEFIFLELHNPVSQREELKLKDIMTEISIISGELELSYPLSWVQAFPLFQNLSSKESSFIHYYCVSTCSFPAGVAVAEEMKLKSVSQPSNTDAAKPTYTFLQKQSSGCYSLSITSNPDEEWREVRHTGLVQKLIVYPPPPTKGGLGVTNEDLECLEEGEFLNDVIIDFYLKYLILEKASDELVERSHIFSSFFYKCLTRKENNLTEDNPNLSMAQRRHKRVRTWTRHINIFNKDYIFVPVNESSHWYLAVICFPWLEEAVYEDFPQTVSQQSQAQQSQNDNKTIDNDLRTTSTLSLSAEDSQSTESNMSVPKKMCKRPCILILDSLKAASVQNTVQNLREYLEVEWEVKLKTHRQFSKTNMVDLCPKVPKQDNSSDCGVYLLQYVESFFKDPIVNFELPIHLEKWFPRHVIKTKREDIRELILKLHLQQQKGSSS
# [2] = biological target: T2, Sentrin-specific protease 8 (Homo sapiens, UniProt Q96LD8); assay type: functional;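 further: luminescence read-out of SENP8 inhibition, dose-response confirmation following an ultra-high-throughput screen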
# T2 sequence (Q96LD8 whole entry): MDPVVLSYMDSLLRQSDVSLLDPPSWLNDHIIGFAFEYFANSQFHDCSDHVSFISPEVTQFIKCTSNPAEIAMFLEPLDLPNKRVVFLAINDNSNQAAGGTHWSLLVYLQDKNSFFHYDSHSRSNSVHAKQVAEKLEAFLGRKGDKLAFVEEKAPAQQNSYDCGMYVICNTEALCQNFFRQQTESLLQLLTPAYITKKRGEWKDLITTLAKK
# [3] = biological target: T3, Protein RecA (Mycobacterium tuberculosis, UniProt P9WHJ3); assay: Fluorescence Cell-Free Homogeneous Dose Retest to Identify Inhibitors of RecA-Intein Splicing Activity. [Related pubchem assays (depositor defined):AID2097, AID2223, AID489010, AID492950]; assay type: functional
# T3 sequence (P9WHJ3 whole entry): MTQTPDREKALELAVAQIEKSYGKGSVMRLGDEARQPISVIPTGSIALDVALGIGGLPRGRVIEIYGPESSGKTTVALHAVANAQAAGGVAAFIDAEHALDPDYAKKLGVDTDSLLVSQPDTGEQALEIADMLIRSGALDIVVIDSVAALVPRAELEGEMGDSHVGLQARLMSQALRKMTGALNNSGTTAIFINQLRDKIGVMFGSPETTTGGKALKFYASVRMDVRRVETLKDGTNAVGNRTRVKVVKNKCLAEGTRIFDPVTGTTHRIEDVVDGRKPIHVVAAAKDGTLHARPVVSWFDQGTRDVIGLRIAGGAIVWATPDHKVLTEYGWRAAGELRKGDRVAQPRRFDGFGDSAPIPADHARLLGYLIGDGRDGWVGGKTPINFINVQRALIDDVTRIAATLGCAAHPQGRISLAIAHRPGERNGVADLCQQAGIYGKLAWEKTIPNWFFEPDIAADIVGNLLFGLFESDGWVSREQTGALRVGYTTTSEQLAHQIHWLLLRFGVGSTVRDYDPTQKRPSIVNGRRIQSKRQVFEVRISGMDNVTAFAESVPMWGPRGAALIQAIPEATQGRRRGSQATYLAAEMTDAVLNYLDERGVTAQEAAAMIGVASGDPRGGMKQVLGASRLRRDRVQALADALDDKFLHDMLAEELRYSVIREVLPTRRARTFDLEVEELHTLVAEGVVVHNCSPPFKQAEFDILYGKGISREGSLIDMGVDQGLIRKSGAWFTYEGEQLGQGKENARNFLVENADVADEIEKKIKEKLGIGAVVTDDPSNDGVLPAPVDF
# [4] = biological target: T4, Tyrosyl-DNA phosphodiesterase 2 (Homo sapiens, UniProt O95551); assay: human TDP2 enzyme inhibitors, dose response, biochemical, epi absorbance, IC50 (AID 743297)
# T4 sequence (O95551 whole entry): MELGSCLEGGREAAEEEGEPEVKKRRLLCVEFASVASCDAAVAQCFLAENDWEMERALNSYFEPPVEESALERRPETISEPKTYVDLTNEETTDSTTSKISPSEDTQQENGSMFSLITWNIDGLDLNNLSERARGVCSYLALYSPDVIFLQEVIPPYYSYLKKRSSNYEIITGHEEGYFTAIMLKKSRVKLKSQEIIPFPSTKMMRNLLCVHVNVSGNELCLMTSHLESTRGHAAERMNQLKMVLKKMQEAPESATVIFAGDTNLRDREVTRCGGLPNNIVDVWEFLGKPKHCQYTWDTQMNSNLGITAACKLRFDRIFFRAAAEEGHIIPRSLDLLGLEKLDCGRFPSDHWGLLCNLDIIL
# [5] = biological target: Serine/threonine-protein phosphatase (Homo sapiens, UniProt Q9BPW0); assay: PP5 phosphatase inhibitors, dose response, biochemical, fluorescence (AID 2395)
# [6] = biological target: Serine/threonine-protein phosphatase PP1-alpha catalytic subunit (Homo sapiens, UniProt P62136); assay: PP1 phosphatase inhibitors, dose response, biochemical, fluorescence (AID 2394)
# [7] = biological target: T5, Caspase-6 (Homo sapiens, UniProt P55212); assay: human caspase-6 inhibitors, dose response, biochemical, VEID-R110 fluorescence, cherry-pick (AID 720632)
# T5 sequence (P55212 whole entry): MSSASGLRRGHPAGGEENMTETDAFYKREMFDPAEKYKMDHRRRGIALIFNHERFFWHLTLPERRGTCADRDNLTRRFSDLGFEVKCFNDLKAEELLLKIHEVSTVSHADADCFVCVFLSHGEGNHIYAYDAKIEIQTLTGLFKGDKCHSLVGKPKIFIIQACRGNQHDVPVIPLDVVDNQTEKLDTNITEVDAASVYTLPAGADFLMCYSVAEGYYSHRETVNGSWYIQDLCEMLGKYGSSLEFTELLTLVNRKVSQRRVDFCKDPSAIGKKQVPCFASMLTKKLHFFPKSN
# Serine/threonine-protein phosphatase, sequence (Q9BPW0 whole entry): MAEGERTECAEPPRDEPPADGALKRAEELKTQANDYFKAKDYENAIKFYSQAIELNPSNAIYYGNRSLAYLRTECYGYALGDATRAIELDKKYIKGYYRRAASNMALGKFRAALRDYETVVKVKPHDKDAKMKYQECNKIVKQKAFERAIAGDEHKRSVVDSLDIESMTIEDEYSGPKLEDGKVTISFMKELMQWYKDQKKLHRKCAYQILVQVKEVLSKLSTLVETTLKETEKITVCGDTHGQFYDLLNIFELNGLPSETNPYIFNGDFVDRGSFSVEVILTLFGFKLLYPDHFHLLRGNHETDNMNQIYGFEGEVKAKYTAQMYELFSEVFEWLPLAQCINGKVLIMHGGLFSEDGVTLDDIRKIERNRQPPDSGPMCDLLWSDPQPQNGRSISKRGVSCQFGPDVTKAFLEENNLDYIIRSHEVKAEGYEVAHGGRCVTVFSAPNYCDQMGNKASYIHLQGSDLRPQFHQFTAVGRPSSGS
# Serine/threonine-protein phosphatase PP1-alpha catalytic subunit, sequence (P62136 whole entry): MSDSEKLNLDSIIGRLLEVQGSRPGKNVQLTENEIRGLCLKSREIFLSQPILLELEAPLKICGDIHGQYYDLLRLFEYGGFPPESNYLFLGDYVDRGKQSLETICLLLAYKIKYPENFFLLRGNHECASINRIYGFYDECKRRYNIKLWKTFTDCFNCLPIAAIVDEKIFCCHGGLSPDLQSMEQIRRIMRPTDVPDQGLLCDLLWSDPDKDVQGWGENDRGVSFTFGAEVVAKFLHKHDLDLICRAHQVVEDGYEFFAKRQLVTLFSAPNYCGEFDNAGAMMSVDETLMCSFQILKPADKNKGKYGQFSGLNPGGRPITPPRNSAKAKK
Structure (SMILES),IC50 [1],IC50 [2],EC50 [3],IC50 [4],IC50 [5],IC50 [6],AC50 [7]
O=C(COC(=O)c1ccc([N+](=O)[O-])s1)Nc1ncc(C(F)(F)F)cc1Cl,10.5 µM (active),4.83 µM (active),–,–,–,–,–
Cn1c(=O)[nH]c(=O)c2c1nc([N+](=O)[O-])n2Cc1ccccc1,–,–,5.87 µM (active),–,–,–,–
O=C(NC1(O)C(=O)c2ccccc2C1=O)c1c(Cl)cccc1Cl,3.76 µM (active),4.78 µM (active),28.6 µM (active),4.2 µM (active),> 2.48 µM (active),> 67 µM (not active),–
O=C(NC1(O)C(=O)c2ccccc2C1=O)c1ccc(C(F)(F)F)cc1,3.51 µM (active),4.9 µM (active),–,3.85 µM (active),> 0.828 µM (active),> 67 µM (not active),–
CCN(c1ccccc1)c1cc2ccccc2c(=O)[nH]1,3.37 µM (active),3.73 µM (active),> 380 µM (inactive),–,–,–,5.45 µM (active)
